Where two headings read alike, the source gives them in different places.
What was measured:
[1] = target: T1, rat histamine H3 receptor (Rattus norvegicus, UniProt Q9QYN8); experiment: Rat H3 radioligand binding ([3H]-N-alpha-methylhistamine, SPA)
T1 construct: encoding the entire 445-amino-acid rat histamine H3 receptor; expressed in transfected cells; membrane preparation
In short: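 Membranes from CHO-A3 cells stably expressing full-length rat H3 receptor (10 μg protein/well) incubated 4 h at room temperature, protected from light, with ~1 nM [3H]-N-alpha-methylhistamine and compound (0.01 nM-30 μM) in 50 mM Tris HCl pH 7.4, 5 mM MgCl2, 0.1% BSA. Binding read by SPA; 10 μM clobenpropit defined non-specific binding.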

human H3 receptor = target: T2, human H3 receptor (Homo sapiens, UniProt Q9Y5N1); experiment: Human H3 radioligand binding ([3H]-N-alpha-methylhistamine, SPA)
T2 construct: expressed in transfected cells
T2 sequence (Q9Y5N1 whole entry): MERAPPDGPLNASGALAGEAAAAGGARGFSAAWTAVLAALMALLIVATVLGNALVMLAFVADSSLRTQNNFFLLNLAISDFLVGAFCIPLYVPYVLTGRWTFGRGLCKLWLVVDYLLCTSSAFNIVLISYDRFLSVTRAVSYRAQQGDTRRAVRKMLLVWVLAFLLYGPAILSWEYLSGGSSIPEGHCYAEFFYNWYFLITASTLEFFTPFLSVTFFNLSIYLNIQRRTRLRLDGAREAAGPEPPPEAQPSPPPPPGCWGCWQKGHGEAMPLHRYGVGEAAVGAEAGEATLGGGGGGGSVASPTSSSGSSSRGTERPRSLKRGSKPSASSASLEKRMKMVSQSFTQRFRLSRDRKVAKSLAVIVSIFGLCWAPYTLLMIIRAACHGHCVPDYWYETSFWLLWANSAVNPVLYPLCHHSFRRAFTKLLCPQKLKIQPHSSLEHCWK
In short: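 SPA competition binding on membranes from CHO cells stably expressing human H3 receptor (10 μg protein/well) with ~1 nM [3H]-N-alpha-methylhistamine and compound at 0.01 nM-30 μM. Incubation 4 h at room temperature in 50 mM Tris-HCl pH 7.4, 5 mM MgCl2, 0.1% BSA; non-specific binding defined with 10 μM clobenpropit.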

[2] = Rat H3 binding, Table B, Examples 136-362, read-out: rat H3 binding Ki
[3] = Human H3 binding, Table B, Examples 136-362, read-out: hum H3 binding Ki

T1 sequence (Q9QYN8 whole entry): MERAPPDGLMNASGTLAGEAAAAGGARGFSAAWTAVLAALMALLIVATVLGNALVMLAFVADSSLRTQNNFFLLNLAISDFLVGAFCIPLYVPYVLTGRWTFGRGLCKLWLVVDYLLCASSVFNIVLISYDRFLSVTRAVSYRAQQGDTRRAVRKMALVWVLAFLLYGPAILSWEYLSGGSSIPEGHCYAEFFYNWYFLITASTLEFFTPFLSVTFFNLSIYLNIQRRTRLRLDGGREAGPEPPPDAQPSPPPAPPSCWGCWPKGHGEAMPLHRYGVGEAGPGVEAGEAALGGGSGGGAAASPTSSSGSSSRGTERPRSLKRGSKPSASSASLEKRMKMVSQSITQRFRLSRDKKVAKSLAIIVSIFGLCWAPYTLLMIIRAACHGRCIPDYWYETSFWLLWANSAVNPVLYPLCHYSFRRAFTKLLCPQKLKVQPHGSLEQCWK

Ki [1, 2] [µM]	Ki (human H3 receptor; [3]) [µM]	melting point [°C]	SMILES	Ki [1] [µM]	Ki (human H3 receptor) [µM]
0.2 to 1	< 0.2	227 to 228	Cn1cc(C(=O)Nc2ccc3c(c2)COC2(CCN(C4CCC4)CC2)O3)cn1 [Example 227]		
0.2 to 1	0.2 to 1	173 to 174	O=c1cccnn1-c1ccc2c(c1)COC1(CCN(C3CCC3)CC1)O2 [Example 228]		
< 0.2	< 0.2	182 to 185	O=C1N(c2ccccc2)CCN1c1ccc2c(c1)CCC1(CCN(C3CCC3)CC1)O2 [Example 229]		
< 0.2	< 0.2	66.8 to 67.5	COC1CCN(C(=O)c2ccc(-c3ccc4c(c3)CCC3(CCN(C5CCC5)CC3)O4)cc2)CC1 [Example 230]		
< 0.2	< 0.2	168.5 to 169.9	Cc1cc(-c2ccc3c(c2)COC2(CCN(C4CCC4)CC2)O3)ccc1C(=O)NCCO [Example 231]		
< 0.2	< 0.2	144.2	CNC(=O)c1ccc(-c2ccc3c(c2)CCC2(CCN(C4CCC4)CC2)O3)cc1Cl [Example 232]		
< 0.2	< 0.2	59.8 to 60.9	COCCNC(=O)c1ccc(-c2ccc3c(c2)CCC2(CCN(C4CCC4)CC2)O3)cc1C [Example 233]		
< 0.2	< 0.2	56 to 58	Cc1ccc(C#N)c(Nc2ccc3c(c2)COC2(CCN(C4CCC4)CC2)O3)n1 [Example 236]		
< 0.2	< 0.2	94.7 to 95.6	CNC(=O)c1ccc(-c2ccc3c(c2)CCC2(CCN(C4CCC4)CC2)O3)cc1C [Example 237]		
< 0.2	< 0.2	78.5 to 79.8	Cc1cc(-c2ccc3c(c2)CCC2(CCN(C4CCC4)CC2)O3)ccc1C(=O)NCCO [Example 238]		
< 0.2	< 0.2	102.8 to 104.6	O=C(c1ccc(-c2ccc3c(c2)CCC2(CCN(C4CCC4)CC2)O3)cc1F)N1CCC(O)CC1 [Example 240]		
< 0.2	< 0.2	232 to 234	c1ccc(Oc2ccc3c(c2)CCC2(CCN(C4CCC4)CC2)O3)nc1 [Example 241]		
< 0.2	< 0.2	222 to 224	O=C1N(c2ccc(C(F)(F)F)nc2)CCN1c1ccc2c(c1)COC1(CCN(C3CCC3)CC1)O2 [Example 242]		
< 0.2	< 0.2	169 to 171	Cc1ncoc1C(=O)Nc1ccc2c(c1)CCC1(CCN(C3CCC3)CC1)O2 [Example 243]		
< 0.2	< 0.2	243 to 245	CN(C)C(=O)c1ccc(N2CCN(c3ccc4c(c3)COC3(CCN(C5CCC5)CC3)O4)C2=O)cc1 [Example 244]		
< 0.2	< 0.2	227 to 228	O=C(Nc1cccc(F)c1)Nc1ccc2c(c1)COC1(CCN(C3CCC3)CC1)O2 [Example 245]		
< 0.2	< 0.2	80 to 82	CNC(=O)c1ccc(-c2ccc3c(c2)CCC2(CCN(C4CCC4)CC2)O3)cc1C#N [Example 246]		
< 0.2	< 0.2	45 to 48	c1cc(CNc2ccc3c(c2)COC2(CCN(C4CCC4)CC2)O3)ccn1 [Example 247]		
< 0.2	< 0.2	237 to 238	O=C(Nc1ccc(F)cc1)Nc1ccc2c(c1)COC1(CCN(C3CCC3)CC1)O2 [Example 248]		

Ki [1, 2] [µM]	Ki (human H3 receptor; [3]) [µM]	melting point [°C]	SMILES	Ki [1] [µM]	Ki (human H3 receptor) [µM]
< 0.2	< 0.2	153 to 155	O=C(Nc1ccc2c(c1)CCC1(CCN(C3CCC3)CC1)O2)c1cc(-c2ccccc2)ncn1 [Example 249]		
< 0.2	< 0.2	63 to 65	CC(=O)N(Cc1ccncc1)c1ccc2c(c1)COC1(CCN(C3CCC3)CC1)O2 [Example 250]		
< 0.2	< 0.2	150 to 152	COC1CCN(C(=O)c2ccc(-c3ccc4c(c3)CCC3(CCN(C5CCC5)CC3)O4)cn2)CC1 [Example 251]		
< 0.2	< 0.2	249 to 251	CO[C@H]1CCN(C(=O)c2ccc(-c3ccc4c(c3)CCC3(CCN(C5CCC5)CC3)O4)cn2)C1 [Example 252]		
< 0.2	< 0.2	53 to 55	CC(=O)N(c1ccc2c(c1)COC1(CCN(C3CCC3)CC1)O2)c1ccccn1 [Example 253]		
< 0.2	< 0.2	122 to 124	CCNC(=O)N1CCN(c2ccc3c(n2)COC2(CCN(C4CCC4)CC2)O3)CC1 [Example 254]		
< 0.2	< 0.2	124.6 to 126.4	COCCNC(=O)c1ccc(-c2ccc3c(c2)COC2(CCN(C4CCC4)CC2)O3)cc1C [Example 255]		
< 0.2	< 0.2	64.9 to 65.4	COCCNC(=O)c1c(F)cc(-c2ccc3c(c2)CCC2(CCN(C4CCC4)CC2)O3)cc1F [Example 256]		
< 0.2	< 0.2	255 to 257	c1cncc(Oc2ccc3c(c2)CCC2(CCN(C4CCC4)CC2)O3)c1 [Example 257]		
< 0.2	< 0.2	100.4 to 102.2	O=C(c1ccc(-c2ccc3c(c2)COC2(CCN(C4CCC4)CC2)O3)cc1)N1CCC(O)CC1 [Example 258]		
< 0.2	< 0.2	234 to 235	Clc1ccc(Nc2ccc3c(c2)COC2(CCN(C4CCC4)CC2)O3)cc1 [Example 259]		
< 0.2	< 0.2	76.3 to 78.2	O=C(NCCO)c1c(F)cc(-c2ccc3c(c2)CCC2(CCN(C4CCC4)CC2)O3)cc1F [Example 260]		
< 0.2	< 0.2	78.6 to 80.4	O=C(NCCO)c1c(F)cc(-c2ccc3c(c2)COC2(CCN(C4CCC4)CC2)O3)cc1F [Example 261]		
< 0.2	< 0.2	125 to 126.3	COCCNC(=O)c1c(F)cc(-c2ccc3c(c2)COC2(CCN(C4CCC4)CC2)O3)cc1F [Example 262]		
< 0.2	< 0.2	94 to 96	COC1CCN(C(=O)c2ccc(-c3ccc4c(c3)COC3(CCN(C5CCC5)CC3)O4)cc2)CC1 [Example 263]		
0.2 to 1	< 0.2	49 to 51	COCCNC(=O)c1ccc(-c2cc3c(cc2Cl)OC2(CCN(C4CCC4)CC2)OC3)cc1 [Example 264]		
< 0.2	< 0.2	95 to 97	CNC(=O)c1ccc(-c2cc3c(cc2Cl)OC2(CCN(C4CCC4)CC2)OC3)cc1 [Example 266]		
< 0.2	< 0.2	175 to 176	COc1cc(C(=O)Nc2ccc3c(c2)COC2(CCN(C4CCC4)CC2)O3)ccn1 [Example 267]		
< 0.2	< 0.2	213 to 215	Cc1cccc(Oc2ccc3c(c2)CCC2(CCN(C4CCC4)CC2)O3)n1 [Example 268]		

SMILES	Ki [1, 2] [µM]	Ki (human H3 receptor; [3]) [µM]	melting point [°C]	Ki [1] [µM]	Ki (human H3 receptor) [µM]
O=C(Nc1ccc2c(c1)CCC1(CCN(C3CCC3)CC1)O2)c1cnnc2ccccc12 [Example 265]			233 to 235	< 0.2	< 0.2

Source: patent publication US8513232B2, “Substituted spirocyclic piperidine derivatives as histamine-3 (H3) receptor ligands” (Cephalon, Inc., priority 2008, dated 2013)
